Counter-ions that a name gives are not always drawn.
Biological target: T1, recombinant human baculovirus-expressed GST-tagged FASN (Homo sapiens, UniProt P49327)
T1 construct: GST
Assay: FASN enzyme activity assay, fluorescence-based detection of CoA with CPM
Assay type: biochemical
Conditions: 5 nM FASN, 150 μM NADPH, 10 μM acetyl-CoA, 25 μM malonyl-CoA, 90 minutes incubation; read-out: IC50 data for Additional Compounds of Formulae I-V(a): Activity
Procedure, shortened: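 Human GST-tagged FASN, baculovirus-expressed (5 nM), in 50 mM HEPES pH 7.5 with 150 μM NADPH, 10 μM acetyl-CoA, 25 μM malonyl-CoA, 0.5% DMSO; malonyl-CoA-started, 90 min. Released CoA detected with CPM (50 μM dilution), 30 min, fluorescence ex 390/em 530. IC50 from variable-slope sigmoidal fit of % inhibition versus log concentration.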

T1 sequence (P49327 whole entry): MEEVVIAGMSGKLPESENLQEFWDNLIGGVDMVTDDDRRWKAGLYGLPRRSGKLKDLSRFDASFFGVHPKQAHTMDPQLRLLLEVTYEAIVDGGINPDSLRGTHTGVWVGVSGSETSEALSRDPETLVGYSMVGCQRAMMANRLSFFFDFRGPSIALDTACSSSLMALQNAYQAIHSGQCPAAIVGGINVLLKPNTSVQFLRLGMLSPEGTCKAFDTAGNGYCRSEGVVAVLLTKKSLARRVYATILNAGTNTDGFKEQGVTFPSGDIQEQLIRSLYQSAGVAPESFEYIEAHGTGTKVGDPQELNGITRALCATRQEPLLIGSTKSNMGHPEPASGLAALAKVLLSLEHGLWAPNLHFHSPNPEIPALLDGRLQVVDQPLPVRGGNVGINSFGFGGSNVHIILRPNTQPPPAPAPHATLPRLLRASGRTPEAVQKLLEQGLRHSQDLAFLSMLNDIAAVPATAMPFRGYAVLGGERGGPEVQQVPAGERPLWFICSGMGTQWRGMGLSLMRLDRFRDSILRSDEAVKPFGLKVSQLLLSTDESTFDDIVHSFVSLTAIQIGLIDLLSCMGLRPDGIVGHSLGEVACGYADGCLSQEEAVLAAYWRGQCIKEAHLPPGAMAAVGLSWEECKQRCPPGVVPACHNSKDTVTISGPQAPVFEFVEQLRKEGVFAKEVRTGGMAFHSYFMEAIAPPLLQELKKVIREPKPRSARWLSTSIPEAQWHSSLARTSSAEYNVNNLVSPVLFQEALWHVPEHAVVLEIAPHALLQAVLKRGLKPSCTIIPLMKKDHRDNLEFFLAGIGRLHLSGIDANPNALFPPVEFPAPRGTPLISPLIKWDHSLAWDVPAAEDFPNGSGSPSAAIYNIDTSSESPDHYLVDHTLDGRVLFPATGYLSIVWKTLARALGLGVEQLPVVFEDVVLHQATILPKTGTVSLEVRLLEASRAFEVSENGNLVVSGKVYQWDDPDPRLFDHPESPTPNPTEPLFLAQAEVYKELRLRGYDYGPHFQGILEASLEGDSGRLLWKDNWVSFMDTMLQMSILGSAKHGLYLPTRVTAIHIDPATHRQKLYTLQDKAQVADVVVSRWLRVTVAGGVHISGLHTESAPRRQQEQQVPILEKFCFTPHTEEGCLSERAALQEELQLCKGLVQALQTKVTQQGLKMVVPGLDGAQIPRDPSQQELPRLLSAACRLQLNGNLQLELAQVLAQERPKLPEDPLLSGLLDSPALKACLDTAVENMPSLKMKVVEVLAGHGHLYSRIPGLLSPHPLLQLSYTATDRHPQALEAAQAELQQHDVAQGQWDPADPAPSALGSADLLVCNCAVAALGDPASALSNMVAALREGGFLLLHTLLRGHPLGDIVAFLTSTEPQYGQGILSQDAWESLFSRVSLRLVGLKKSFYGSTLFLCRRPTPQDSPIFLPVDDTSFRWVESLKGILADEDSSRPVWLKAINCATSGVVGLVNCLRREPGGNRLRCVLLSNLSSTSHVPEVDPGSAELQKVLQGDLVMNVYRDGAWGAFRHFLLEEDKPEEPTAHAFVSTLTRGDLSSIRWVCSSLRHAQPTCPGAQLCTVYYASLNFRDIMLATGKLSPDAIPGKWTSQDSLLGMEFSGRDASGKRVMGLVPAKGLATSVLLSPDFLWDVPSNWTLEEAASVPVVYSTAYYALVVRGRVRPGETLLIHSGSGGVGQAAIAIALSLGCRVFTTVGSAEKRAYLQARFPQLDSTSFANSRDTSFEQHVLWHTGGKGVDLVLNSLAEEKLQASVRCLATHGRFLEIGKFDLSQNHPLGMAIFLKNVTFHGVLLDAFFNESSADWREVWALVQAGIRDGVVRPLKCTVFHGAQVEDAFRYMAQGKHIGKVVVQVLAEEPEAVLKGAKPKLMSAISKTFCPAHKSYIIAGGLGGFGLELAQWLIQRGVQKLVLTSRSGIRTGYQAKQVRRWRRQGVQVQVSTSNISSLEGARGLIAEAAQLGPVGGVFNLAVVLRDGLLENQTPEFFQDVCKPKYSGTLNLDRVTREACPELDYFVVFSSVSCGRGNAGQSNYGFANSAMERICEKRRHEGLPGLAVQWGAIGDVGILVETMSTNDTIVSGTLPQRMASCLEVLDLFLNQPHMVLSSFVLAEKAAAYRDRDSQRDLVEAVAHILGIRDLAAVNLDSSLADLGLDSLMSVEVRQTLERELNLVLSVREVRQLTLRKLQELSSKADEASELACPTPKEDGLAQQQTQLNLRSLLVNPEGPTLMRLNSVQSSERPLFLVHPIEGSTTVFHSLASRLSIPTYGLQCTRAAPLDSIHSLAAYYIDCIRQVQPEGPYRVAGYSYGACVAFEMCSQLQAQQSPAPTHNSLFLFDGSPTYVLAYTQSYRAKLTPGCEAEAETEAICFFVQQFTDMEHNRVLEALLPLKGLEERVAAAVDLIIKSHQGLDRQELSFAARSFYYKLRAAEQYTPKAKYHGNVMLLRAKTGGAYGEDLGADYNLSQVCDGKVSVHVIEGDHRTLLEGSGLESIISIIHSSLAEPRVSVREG

IC50 | SMILES
100 to 999 nM | Cc1c(-c2ccc(OC3CCN(C(=O)NCC4CCC4)CC3)cc2)ccc2cccnc12 [Example 560, N-(Cyclobutylmethyl)-4-[4-(8-methyl-7-quinolyl)phenoxy]piperidine-1-carboxamide]
1000 to 10000 nM | Cc1c(-c2ccc(OC3CCN(C(=O)CN(C)C)CC3)cc2)ccc2cccnc12 [Example 614, 2-(Dimethylamino)-1-[4-[4-(8-methyl-7-quinolyl)phenoxy]-1-piperidyl]-ethanone]
1000 to 10000 nM | Cc1c(-c2ccc(OC3CCN(C(=O)C(C)(C)N)CC3)cc2)ccc2cccnc12 [Example 619, 2-Amino-2-methyl-1-[4-[4-(8-methyl-7-quinolyl)phenoxy]-1-piperidyl]propan-1-one]
100 to 999 nM | CCONC(=O)N1CCC(Oc2ccc(-c3ccc4nccn4c3C)cc2)CC1 [Example 608, N-Ethoxy-4-[4-(5-methylimidazo[1,2-a]pyridin-6-yl)phenoxy]piperidine-1-carboxamide]

Same assay, conditions: 5 nM FASN, 150 μM NADPH, 10 μM acetyl-CoA, 25 μM malonyl-CoA, 90 minutes incubation; read-out: IC50 data for Compounds of Formulae I-V/V(a): Activity

SMILES | IC50
O=C1CCCN1C(=O)N1CCC(Oc2ccc(-c3cnc4ccccc4c3)cc2)CC1 [Example 243, 1-[4-(4-Quinolin-3-yl-phenoxy)-piperidine-1-carbonyl]-pyrrolidin-2-one] | 1000 to 10000 nM
COc1cccc2ncc(-c3ccc(OC4CCN(C(=O)C5CC5)CC4)cc3)cc12 [Example 464, Cyclopropyl-{4-[4-(5-methoxyquinolin-3-yl)-phenoxy]-piperidin-1-yl}-methanone] | 1000 to 10000 nM
O=C(C1CCCS1(=O)=O)N1CCC(Oc2ccc(-c3cnc4ccccc4c3)cc2)CC1 (centres unmarked) [Example 118, (1,1-Dioxidotetrahydrothiophen-2-yl)(4-(4-(quinolin-3-yl)phenoxy)piperidin-1-yl)methanone, HCl] | 1000 to 10000 nM
CCC(=O)N1CCC(Oc2ccc(-c3ccc(C#N)cc3)cc2)CC1 [Example 493, 4′-(1-Propionyl-piperidin-4-yloxy)-biphenyl-4-carbonitrile] | 1000 to 10000 nM
O=C(C1CC1)N1CCC(Oc2ccc(-c3cccc(Oc4ccccc4)c3)cc2)CC1 [Example 511, Cyclopropyl-[4-(3′-phenoxybiphenyl-4-yloxy)-piperidin-1-yl]-methanone] | 1000 to 10000 nM
O=C(C1CC1)N1CCC(Oc2ccc(-c3ccc4cccnc4c3OCCCN3CCCC3)cc2)CC1 [Example 176, Cyclopropyl-(4-{4-[8-(3-pyrrolidin-1-yl-propoxy)-quinolin-7-yl]-phenoxy}-piperidin-1-yl)-methanone, HCl] | 1000 to 10000 nM
Cc1c(-c2ccc(OC3CCN(C(=O)C4CC4)CC3)cc2)ccc2ncnn12 [Example 314, Cyclopropyl-{4-[4-(5-methyl-[1,2,4]triazolo[1,5-a]pyridin-6-yl)-phenoxy]-piperidin-1-yl}-methanone] | 1000 to 10000 nM
O=C(C1CC1)N1CCC(Oc2ccc(-c3cnc4ccccc4c3)cn2)CC1 [Example 134, Cyclopropyl-[4-(5-quinolin-3-yl-pyridin-2-yloxy)-piperidin-1-yl]-methanone, HCl] | 1000 to 10000 nM
COc1ccc(-c2ccc(OC3CCN(C(=O)OC(C)(C)C)CC3)cc2)cc1OC [Example 489, 4-(3′,4′-Dimethoxybiphenyl-4-yloxy)-piperidine-1-carboxylic acid t-butyl ester] | 1000 to 10000 nM
CN1CCN(c2c(-c3ccc(OC4CCN(C(=O)[C@H]5CCCO5)CC4)cc3)cnc3ccccc23)CC1 [Example 240, (4-{4-[4-(4-Methylpiperazin-1-yl)-quinolin-3-yl]-phenoxy}-piperidin-1-yl)-(R)-tetrahydrofuran-2-yl-methanone] | 1000 to 10000 nM
CCC(=O)N1CCC(Oc2ccc(-c3ccc4c(C5CC5)nccc4c3)cc2)CC1 [Example 439, 1-{4-[4-(1-Cyclopropyl-isoquinolin-6-yl)-phenoxy]-piperidin-1-yl}-propan-1-one] | 1000 to 10000 nM
CCC(=O)N1CCC(Oc2ccc(-c3cnc4ccoc4c3)cc2)CC1 [Example 51, 1-[4-(4-Furo[3,2-b]pyridin-6-yl-phenoxy)-piperidin-1-yl]-propan-1-one] | 1000 to 10000 nM
Cc1cnc2cc(-c3ccc(OC4CCN(C(=O)C5CC5)CC4)cc3)ccc2c1 [Example 282, Cyclopropyl-{4-[4-(3-methylquinolin-7-yl)-phenoxy]-piperidin-1-yl}-methanone] | 1000 to 10000 nM

Further lines, results first:

IC50 | SMILES
1 to 99 nM | COc1ccc2cc(-c3ccc(OC4CCN(C(=O)[C@H]5CCCO5)CC4)cc3)cnc2c1 [Example 262, {4-[4-(7-Methoxyquinolin-3-yl)-phenoxy]-piperidin-1-yl}-(R)-tetrahydro-furan-2-yl-methanone]
100 to 999 nM | CCC(=O)N1CCC(Oc2ccc(-c3ccc4nccn4c3Cl)cc2)CC1 [Example 296, 1-{4-[4-(5-Chloroimidazo[1,2-a]pyridin-6-yl)-phenoxy]-piperidin-1-yl}-propan-1-one]
1 to 99 nM | Cc1cc2cc(-c3ccc(OC4CCN(C(=O)[C@H]5CCCO5)CC4)cc3)ccc2cn1 [Example 437, {4-[4-(3-Methylisoquinolin-6-yl)-phenoxy]-piperidin-1-yl}-(R)-tetrahydro-furan-2-yl-methanone]
100 to 999 nM | CC(C)(C)C(=O)N1CCC(Oc2ccc(-c3cnc4ccccc4c3)cc2)CC1 [Example 114, 2,2-Dimethyl-1-[4-(4-quinolin-3-yl-phenoxy)-piperidin-1-yl]-propan-1-one, HCl]
1 to 99 nM | Cc1cc(-c2ccc(OC3CCN(C(=O)[C@H]4CCCO4)CC3)cc2)cc2ncccc12 [Example 352, (R)-(4-(4-(5-Methylquinolin-7-yl)phenoxy)piperidin-1-yl)(tetrahydrofuran-2-yl)methanone]
100 to 999 nM | Cc1ccc2ncccc2c1-c1ccc(OC2CCN(C(=O)C3CC3)CC2)cc1 [Example 351, Cyclopropyl(4-(4-(6-methylquinolin-5-yl)phenoxy)piperidin-1-yl)methanone, HCl]
100 to 999 nM | N#Cc1cnc2cc(-c3ccc(OC4CCN(C(=O)C5CC5)CC4)cc3)ccc2c1 [Example 279, 7-[4-(1-Cyclopropanecarbonyl-piperidin-4-yloxy)-phenyl]-quinoline-3-carbonitrile]
1 to 99 nM | C[C@H]1CCO[C@H]1C(=O)N1CCC(Oc2ccc(-c3cnc4ccccc4c3)cc2)CC1 (racemic) [Example 154, ((2R,3S)/(2S,3R)-3-Methyl-tetrahydrofuran-2-yl)-[4-(4-quinolin-3-yl-phenoxy)-piperidin-1-yl]-methanone, HCl]
100 to 999 nM | CCC(=O)N1CCC(Oc2ccc(-c3cc4ccccc4nc3OC)cc2)CC1 [Example 18, 1-{4-[4-(2-Methoxyquinolin-3-yl)-phenoxy]-piperidin-1-yl}-propan-1-one]
1 to 99 nM | O=C(C1CC1)N1CCC(Oc2ccc(-c3cc4ccccc4cn3)cc2)CC1 [Example 44, Cyclopropyl-[4-(4-isoquinolin-3-yl-phenoxy)-piperidin-1-yl]-methanone]
1 to 99 nM | O=C([C@H]1CCCO1)N1CCC(Oc2ccc(-c3cnc4ccccc4n3)cc2)CC1 [Example 68, [4-(4-Quinoxalin-2-yl-phenoxy)-piperidin-1-yl]-(R)-tetrahydrofuran-2-yl-methanone]
1 to 99 nM | Nc1nccc2cc(-c3ccc(OC4CCN(C(=O)[C@H]5CCCO5)CC4)cc3)ccc12 [Example 454, {4-[4-(1-Aminoisoquinolin-6-yl)-phenoxy]-piperidin-1-yl}-(R)-tetrahydro-furan-2-yl-methanone]
1 to 99 nM | Cc1c(-c2ccc(O[C@@H]3CCN(C(=O)[C@@H]4CCCO4)C[C@H]3F)cc2)ccc2cccnc12 (racemic) [Example 372, {(trans)-3-Fluoro-4-[4-(8-methylquinolin-7-yl)-phenoxy]-piperidin-1-yl}-(R)-tetrahydrofuran-2-yl-methanone, HCl]
100 to 999 nM | CC(=O)N1CCC(Oc2ccc(-c3cnc4ccccc4c3)cc2)CC1 [Example 112, 1-[4-(4-Quinolin-3-yl-phenoxy)-piperidin-1-yl]-ethanone, HCl]
100 to 999 nM | COc1cc(-c2ccc(OC3CCN(C(=O)C4CC4)CC3)cc2)cn2nccc12 [Example 411, Cyclopropyl-{4-[4-(4-methoxypyrazolo[1,5-a]pyridin-6-yl)-phenoxy]-piperidin-1-yl}-methanone, HCl]
1 to 99 nM | O=C([C@H]1CCCO1)N1CCC(Oc2ccc(-c3ccc4nccn4c3Cl)cc2)CC1 [Example 295, {4-[4-(5-Chloroimidazo[1,2-a]pyridin-6-yl)-phenoxy]-piperidin-1-yl}-(R)-tetrahydrofuran-2-yl-methanone]
100 to 999 nM | CC(C)Oc1c(-c2ccc(OC3CCN(C(=O)C4CC4)CC3)cc2)ccc2cccnc12 [Example 170, Cyclopropyl-{4-[4-(8-isopropoxyquinolin-7-yl)-phenoxy]-piperidin-1-yl}-methanone, HCl]
100 to 999 nM | O=C(C1CC1)N1CCC(Oc2ccc(-c3ccc4c(Cl)nccc4c3)cc2)CC1 [Example 420, {4-[4-(1-Chloroisoquinolin-6-yl)-phenoxy]-piperidin-1-yl}-cyclopropyl-methanone]
100 to 999 nM | CN(C)c1nccc2cc(-c3ccc(OC4CCN(C(=O)[C@H]5CCCO5)CC4)cc3)ccc12 [Example 453, {4-[4-(1-Dimethylaminoisoquinolin-6-yl)-phenoxy]-piperidin-1-yl}-(R)-tetrahyrofuran-2-yl methananone, HCl]
1 to 99 nM | Cc1c(-c2ccc(OC3CCN(C(=O)[C@H]4CCCO4)CC3)cc2)ccc2cccnc12 [Example 69, {4-[4-(8-Methylquinolin-7-yl)-phenoxy]-piperidin-1-yl}-(R)-tetrahydro-furan-2-yl-methanone]
100 to 999 nM | O=C([C@H]1CCCO1)N1CCC(Oc2ccc(-c3cnc4ccccc4c3N3CCOCC3)cc2)CC1 [Example 238, {4-[4-(4-Morpholin-4-yl-quinolin-3-yl)-phenoxy]-piperidin-1-yl}-(R)-tetrahydrofuran-2-yl-methanone]

Source: patent publication US9902696B2, “1,4-substituted piperidine derivatives” (Cephalon, Inc., priority 2015, dated 2018)
